Measured values taken from patent US20170000133A1, “BENZOXABOROLE FUNGICIDES” (SYNGENTA PARTICIPATIONS AG, priority 2013, published 2017).

Columns and labels:
[1] = system: Magnaporthe grisea (Pyricularia oryzae); type: in vivo; settings: 200 ppm; rice leaf segments cv. Ballila, inoculated 2 days after application, assessed 5-7 days after application
[2] = system: Monographella nivalis (Microdochium nivale); assay: Monographella nivalis (Microdochium nivale) / liquid culture (foot rot cereals); type: cell-based; settings: PDB potato dextrose broth, 24° C., 4-5 days after application, read-out: disease control (inhibition of growth determined photometrically)
[3] = system: Mycosphaerella graminicola (Septoria tritici); assay: Mycosphaerella graminicola (Septoria tritici) / liquid culture (Septoria blotch); type: cell-based; settings: Zymoseptoria tritici, PDB potato dextrose broth, 24° C., 4-5 days after application, read-out: disease control (inhibition of growth determined photometrically)
In short: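 Growth inhibition was read photometrically 4-5 days after application, following incubation at 24° C of fungal conidia in potato dextrose broth over test compound (200 ppm, from DMSO solution) in microtiter plates.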

[4] = system: Phaeosphaeria nodorum (Septoria nodorum); assay: Phaeosphaeria nodorum (Septoria nodorum) / wheat / leaf disc preventative (glume blotch); type: in vivo; settings: Parastagonospora nodorum, foliar, wheat leaf segments cv Kanzler, inoculated 2 days after application, assessed 5-7 days after application, read-out: disease control
Experimental: 5. Phaeosphaeria nodorum (Septoria nodorum)/Wheat/Leaf Disc Preventative (Glume Blotch): Wheat leaf segments (cv) Kanzler were placed on agar in a 24-well plate and sprayed with formulated test compound diluted in water at an application rate of 200 ppm. The leaf disks were inoculated with a spore suspension of the fungus 2 days after application. The inoculated test leaf disks were incubated at 20° C. and 75% relative humidity under a light regime of 12/12 h (light/dark) in a climate cabinet and the activity of a compound was assessed as percent disease control compared to untreated when an appropriate level of disease damage appears in untreated check leaf disks (5-7 days after application).

[5] = system: Plasmopara viticola; assay: whole plant or invertebrate; type: in vivo; settings: foliar, read-out: disease control
[6] = system: Puccinia recondita f. sp. tritici; assay: Puccinia recondita f. sp. tritici / wheat / leaf disc preventative (brown rust); type: in vivo; settings: foliar, wheat leaf segments cv Kanzler, inoculated 1 day after application, assessed 7-9 days after application, read-out: disease control
From the text: 3. Puccinia recondita f. sp. tritici/Wheat/Leaf Disc Preventative (Brown Rust): Wheat leaf segments cultivated variety (cv) Kanzler were placed on agar in 24-well plates and sprayed with formulated test compound diluted in water at an application rate of 200 ppm. The leaf disks were inoculated with a spore suspension of the fungus 1 day after application.

[7] = system: Pythium ultimum; assay: Pythium ultimum / liquid culture (seedling damping off); type: cell-based; settings: Globisporangium ultimum; 200 ppm; potato dextrose broth, 24° C., 2-3 days after application; read-out: disease control (inhibition of growth determined photometrically)
[8] = system: Phytophthora infestans; assay: whole plant or invertebrate; type: in vivo; settings: in Solanum lycopersicum, foliar, read-out: disease control
[9] = system: Sclerotinia sclerotiorum; assay: Sclerotinia sclerotiorum / liquid culture (cottony rot); type: cell-based; settings: PDB potato dextrose broth, 24° C., 3-4 days after application, read-out: disease control (inhibition of growth determined visually)
Experimental: 18. Sclerotinia sclerotiorum/Liquid Culture (Cottony Rot): Mycelia fragments of a newly grown liquid culture of the fungus were directly mixed into nutrient broth (PDB potato dextrose broth). After placing a (DMSO) solution of the test compounds into a microtiter plate (96-well format) the nutrient broth containing the fungal material was added. The test plates were incubated at 24° C. and the inhibition of growth was determined visually 3-4 days after application.

[10] = system: Gaeumannomyces graminis; assay: Gaeumannomyces graminis / liquid culture (take-all of cereals); type: cell-based; settings: PDB potato dextrose broth, 24° C., 4-5 days after application, read-out: disease control (inhibition of growth determined photometrically)
In short: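 Growth inhibition measured photometrically 4–5 days post-application, following incubation at 24 °C. Test compound, applied from DMSO at 200 ppm, mixed with fungal mycelial fragments in potato dextrose broth.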

[11] = system: Mycosphaerella arachidis (Cercospora arachidicola); assay: Mycosphaerella arachidis (Cercospora arachidicola) / liquid culture (early leaf spot); type: cell-based; settings: PDB potato dextrose broth, 24° C., 4-5 days after application, read-out: disease control (inhibition of growth determined photometrically)
In short: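 Test compound, applied at 200 ppm from DMSO solution, was combined with spore-containing potato dextrose broth. Photometric growth inhibition was scored after 4-5 days at 24° C.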

[12] = system: Glomerella lagenarium (Colletotrichum lagenarium); assay: Glomerella lagenarium (Colletotrichum lagenarium) / liquid culture (anthracnose); type: cell-based; settings: Colletotrichum orbiculare, PDB potato dextrose broth, 24° C., 3-4 days after application, read-out: disease control (inhibition of growth measured photometrically)
In short: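 Compound was applied at 200 ppm from DMSO solution, then potato dextrose broth carrying cryostored fungal spores was added. Growth inhibition was measured by photometry after 3-4 days of incubation at 24° C.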

[13] = system: Thanatephorus cucumeris (Rhizoctonia solani); assay: Thanatephorus cucumeris (Rhizoctonia solani) / liquid culture (foot rot, damping-off); type: cell-based; settings: PDB potato dextrose broth, 24° C., 3-4 days after application, read-out: disease control (inhibition of growth determined photometrically)
In short: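 Photometric growth-inhibition readout taken 3-4 days after application, with cultures incubated at 24 °C. Test compound was applied at 200 ppm from DMSO solution to R. solani mycelial fragments in PDB.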

[14] = system: Fusarium culmorum; assay: microbe, parasite or virus in culture; type: cell-based; settings: read-out: disease control (inhibition of growth determined visually)
[15] = system: Botryotinia fuckeliana (Botrytis cinerea); assay: Botryotinia fuckeliana (Botrytis cinerea) / liquid culture (gray mould); type: cell-based; settings: Vogels broth, 24° C., 3-4 days after application, read-out: disease control (inhibition of growth determined photometrically)
Experimental: 10. Botryotinia fuckeliana (Botrytis cinerea)/Liquid Culture (Gray Mould): Conidia of the fungus from cryogenic storage were directly mixed into nutrient broth (Vogels broth). After placing a DMSO solution of test compound into a 96-well microtiter plate at an application rate of 200 ppm, the nutrient broth containing the fungal spores was added. The test plates were incubated at 24° C. and the inhibition of growth was determined photometrically 3-4 days after application.

[16] = system: Puccinia recondita f. sp. tritici; assay: Puccinia recondita f. sp. tritici / wheat / leaf disc curative (brown rust); type: in vivo; settings: foliar, 192 h, wheat leaf segments, applied one day after inoculation, assessed 8 dpi, read-out: disease control
Experimental: 4. Puccinia recondita f. sp. tritici/Wheat/Leaf Disc Curative (Brown Rust) Wheat leaf segments are placed on agar in multiwell plates (24-well format). The leaf disks are then inoculated with a spore suspension of the fungus. One day after inoculation the test solution is applied. After appropriate incubation the activity of a compound is assessed 8 dpi (days after inoculation) as curative fungicidal activity. Dose range: 200-22 ppm.

Row | Structure (SMILES) | disease control [1] | inhibition at 200 ppm [2] [%] | inhibition at 200 ppm [3] [%] | pest or weed control at 200 ppm [4] [%] | pest or weed control at 200 ppm [5] [%] | pest or weed control at 200 ppm [6] [%] | inhibition at 200 ppm [7] [%] | pest or weed control at 200 ppm [8] [%] | inhibition at 200 ppm [9] [%] | inhibition at 200 ppm [10] [%] | inhibition at 200 ppm [11] [%] | inhibition at 200 ppm [12] [%] | inhibition at 200 ppm [13] [%] | inhibition at 200 ppm [14] [%] | inhibition at 200 ppm [15] [%] | pest or weed control at 200 ppm [16] [%] | melting point [°C]
1 | COC(=O)c1cc2c(cc1Cl)COB2O [Compound 21] | at least 80% |  |  |  |  |  |  |  |  |  |  |  |  |  |  |  | 
2 | CC(C)c1ccc(NC(=O)c2cc3c(cc2Cl)COB3O)cc1 [Compound 110] |  | ≥ 80 | ≥ 80 | ≥ 80 |  |  |  |  |  |  |  |  |  |  |  |  | 
3 | O=C(Nc1ccccc1C(=O)c1ccccc1)c1cc2c(cc1F)COB2O [Compound 161] |  | ≥ 80 | ≥ 80 | ≥ 80 | ≥ 80 | ≥ 80 | ≥ 80 |  |  |  |  |  |  |  |  |  | 
4 | O=C(OCC1CC1)c1cc2c(cc1Cl)COB2O [Compound 202] |  | ≥ 80 | ≥ 80 | ≥ 80 |  |  | ≥ 80 | ≥ 80 | ≥ 80 | ≥ 80 | ≥ 80 | ≥ 80 | ≥ 80 | ≥ 80 | ≥ 80 |  | 
5 | C#CCCCOC(=O)c1cc2c(cc1Cl)COB2O [Compound 208] |  | ≥ 80 | ≥ 80 | ≥ 80 | ≥ 80 |  | ≥ 80 | ≥ 80 |  | ≥ 80 |  | ≥ 80 |  |  |  |  | 
6 | COC(=O)COC(=O)c1cc2c(cc1Cl)COB2O [Compound 230] |  | ≥ 80 | ≥ 80 |  | ≥ 80 |  | ≥ 80 |  | ≥ 80 | ≥ 80 | ≥ 80 | ≥ 80 | ≥ 80 | ≥ 80 |  | ≥ 80 | 
7 | O=C(OCC#Cc1ccccc1)c1cc2c(cc1Cl)COB2O [Compound 232] |  | ≥ 80 | ≥ 80 | ≥ 80 | ≥ 80 |  | ≥ 80 |  |  | ≥ 80 | ≥ 80 | ≥ 80 | ≥ 80 | ≥ 80 |  |  | 
8 | O=C(OCCF)c1cc2c(cc1Cl)COB2O [Compound 233] |  | ≥ 80 | ≥ 80 | ≥ 80 |  |  | ≥ 80 |  |  | ≥ 80 | ≥ 80 | ≥ 80 |  | ≥ 80 |  | ≥ 80 | 
9 | CCC#CCOC(=O)c1ccc2c(c1)B(O)OC2 [Compound 318] |  | ≥ 80 | ≥ 80 | ≥ 80 | ≥ 80 |  | ≥ 80 |  |  | ≥ 80 | ≥ 80 |  | ≥ 80 | ≥ 80 | ≥ 80 |  | 
10 | O=C(OCC1CCC1)c1ccc2c(c1)B(O)OC2 [Compound 351] |  | ≥ 80 | ≥ 80 | ≥ 80 | ≥ 80 |  | ≥ 80 |  |  | ≥ 80 | ≥ 80 | ≥ 80 | ≥ 80 | ≥ 80 |  | ≥ 80 | 
11 | COC(=O)COC(=O)c1cc2c(cc1F)COB2O [Compound 419] |  | ≥ 80 | ≥ 80 |  | ≥ 80 | ≥ 80 | ≥ 80 |  | ≥ 80 | ≥ 80 | ≥ 80 | ≥ 80 | ≥ 80 | ≥ 80 | ≥ 80 | ≥ 80 | 112 to 114
12 | COC(=O)c1cc2c(cc1C)COB2O [Compound 446] |  | ≥ 80 | ≥ 80 | ≥ 80 |  |  | ≥ 80 |  | ≥ 80 | ≥ 80 | ≥ 80 | ≥ 80 | ≥ 80 | ≥ 80 |  |  | 136 to 138
